According to patent publication US8569493B2 (Santen Pharmaceutical Co., Ltd., priority 2007, dated 2013):

These compounds were tested against T1, Recombinant human GR (Homo sapiens, UniProt P04150) (assay: GR competitor assay by fluorescence polarization (binding activity to glucocorticoid receptor)). Settings: 20 μM test compound solution, 10 μL per well plus 5 μL 4×GS1 and 5 μL 4×GR; 2 to 4 hours at room temperature; ratio of 100% or more is indicated by 100%.
T1 construct: purchased Invitrogen P2816
T1 sequence (P04150 1-777): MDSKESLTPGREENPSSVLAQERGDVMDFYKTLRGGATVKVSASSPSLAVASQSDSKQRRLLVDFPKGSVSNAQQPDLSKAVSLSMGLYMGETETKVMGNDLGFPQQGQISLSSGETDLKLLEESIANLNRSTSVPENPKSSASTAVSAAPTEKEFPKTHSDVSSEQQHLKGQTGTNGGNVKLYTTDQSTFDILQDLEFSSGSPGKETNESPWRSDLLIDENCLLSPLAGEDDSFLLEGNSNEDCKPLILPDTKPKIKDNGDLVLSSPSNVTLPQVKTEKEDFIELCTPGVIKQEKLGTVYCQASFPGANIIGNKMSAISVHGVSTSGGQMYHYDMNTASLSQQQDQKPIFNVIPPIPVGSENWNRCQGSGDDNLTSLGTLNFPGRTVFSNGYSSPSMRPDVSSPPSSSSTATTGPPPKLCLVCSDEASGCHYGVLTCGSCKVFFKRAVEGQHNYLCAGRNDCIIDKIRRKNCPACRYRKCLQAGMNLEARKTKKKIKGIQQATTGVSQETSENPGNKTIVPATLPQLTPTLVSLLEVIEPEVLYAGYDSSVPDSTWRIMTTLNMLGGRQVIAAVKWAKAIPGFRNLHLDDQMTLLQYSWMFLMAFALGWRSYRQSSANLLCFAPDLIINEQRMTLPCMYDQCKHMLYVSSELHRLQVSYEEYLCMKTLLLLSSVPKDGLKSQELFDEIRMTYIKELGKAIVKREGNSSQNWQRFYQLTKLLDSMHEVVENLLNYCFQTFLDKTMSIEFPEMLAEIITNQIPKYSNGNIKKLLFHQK
Description: 1. Evaluation Test for Binding Activity to Glucocorticoid Receptor (hereinafter referred to as “GR”)
In order to evaluate a binding activity to GR, a receptor competitor assay was carried out by a fluorescence polarization method. In the assay, a GR competitor assay kit (manufactured by Invitrogen, cat No. P2816) was used, and a procedure was carried out according to the protocol attached to the kit. Hereinafter, the specific method will be described.
(Preparation of Reagents)
GR screening buffer: A buffer containing 10 mM potassium phosphate (pH 7.4), 20 mM sodium molybdate (Na2MoO4), 0.1 mM ethylene diamine tetraacetic acid (EDTA), 5 mM dithiothreitol (DTT), 0.1 mM stabilizing peptide and 2% dimethylsulfoxide was prepared.
4×GS1 solution: Fluormone™ GS1, which is a fluorescent glucocorticoid ligand, was diluted with GR screening buffer, whereby a 4 nM solution was prepared.
4×GR solution: Recombinant human GR was diluted with GR screening buffer, whereby a 16 nM solution was prepared.
(Preparation of Test Compound Solution)
After a test compound was dissolved in dimethylsulfoxide, it was diluted with GR screening buffer, whereby a 20 μM test compound solution was prepared.
(Test Method and Measurement Method)
1) The test compound solution was added in an amount of 10 μL into each well of a 384-well plate, and then, 4×GS1 solution and 4×GR solution were added in an amount of 5 μL into each well, respectively.
2) The plate was incubated in a dark place at room temperature for 2 to 4 hours.
3) By using a multimode plate reader, Analyst™ HT (manufactured by LJL Biosystems), fluorescence polarization of each well was measured. As the blank, a well containing GR screening buffer in place of the test compound and 4×GS1 solution was used.
4) The same procedure as that in the above 1) to 3) was carried out except that GR screening buffer was used in place of the test compound solution, and the obtained result was taken as the negative control.
5) The same procedure as that in the above 1) to 3) was carried out except that 2 mM dexamethasone was used in place of the test compound solution, and the obtained result was taken as the positive control.
(Calculation Equation of GR Binding Ratio)
A GR binding ratio (%) was calculated from the following equation. GR binding ratio(%)=100×[1−(fluorescence polarization of test compound solution−fluorescence polarization of positive control solution)/(fluorescence polarization of negative control solution−fluorescence polarization of positive control solution)] (Test Results and Discussion)

| Compound | inhibition at 10 µM [%] |
| --- | --- |
| CCCS(=O)(=O)Oc1ccc(-c2ccc3c(c2COc2cc([N+](=O)[O-])ccc2OC)N(C)C(=O)C(C)(C)N3)c(OC)c1 [Compound 1-44] | 93 |
| COc1cc(OS(=O)(=O)C2CC2)ccc1-c1ccc2c(c1COc1cc([N+](=O)[O-])ccc1C)N(C)C(=O)C(C)(C)N2 [Compound 1-45] | 94 |
| COc1cc(OS(=O)(=O)CCC(F)(F)F)ccc1-c1ccc2c(c1COc1cc([N+](=O)[O-])ccc1C)N(C)C(=O)C(C)(C)N2 [Compound 1-46] | 95 |
| COc1cc(OS(=O)(=O)C2CCCC2)ccc1-c1ccc2c(c1COc1cc([N+](=O)[O-])ccc1C)N(C)C(=O)C(C)(C)N2 [Compound 1-50] | 98 |
| COc1cc(OS(=O)(=O)CCCCl)ccc1-c1ccc2c(c1COc1cc(F)ccc1C)N(C)C(=O)C(C)(C)N2 [Compound 1-54, 7-[4-(3-chloropropylsulfonyloxy)-2-methoxyphenyl]-8-(5-fluoro-2-methylphenoxymethyl)-1,3,3-trimethyl-3,4-dihydro-1H-quinoxalin-2-one] | 99 |
| COc1cc(OS(=O)(=O)C2CCCC2)ccc1-c1ccc2c(c1CNc1cc(F)ccc1C)N(C)C(=O)C(C)(C)N2 [Compound 1-57] | 93 |
| CCCS(=O)(=O)Oc1ccc(-c2ccc3c(c2CNc2cc(F)ccc2C)N(C)C(=O)C(C)(C)N3)c(OC)c1 [Compound 1-58] | 100 |
| COc1ccccc1NCc1c(-c2ccc(OS(C)(=O)=O)cc2OC)ccc2c1N(C)C(=O)C(C)(C)N2 [Compound 2-1, 7-(2-Methoxy-4-methylsulfonyloxyphenyl)-8-(2-methoxyphenylaminomethyl)-1,3,3-trimethyl-3,4-dihydro-1H-quinoxalin-2-one] | 95 |
| COc1ccccc1NCc1c(-c2ccc(OS(=O)(=O)c3ccccc3)cc2OC)ccc2c1N(C)C(=O)C(C)(C)N2 [Compound 2-2, 8-(2-Methoxyphenylaminomethyl)-7-(2-methoxy-4-phenylsulfonyloxyphenyl)-1,3,3-trimethyl-3,4-dihydro-1H-quinoxalin-2-one] | 89 |
| COc1ccccc1NCc1c(-c2ccc(OS(=O)(=O)C3CC3)cc2OC)ccc2c1N(C)C(=O)C(C)(C)N2 [Compound 2-3] | 93 |
| COc1ccccc1NCc1c(-c2ccc(OS(=O)(=O)CCC(F)(F)F)cc2OC)ccc2c1N(C)C(=O)C(C)(C)N2 [Compound 2-4, 8-(2-Methoxyphenylaminomethyl)-7-[2-methoxy-4-(3,3,3-trifluoropropylsulfonyloxy)phenyl]-1,3,3-trimethyl-3,4-dihydro-1H-quinoxalin-2-one] | 91 |
| COc1ccccc1NCc1c(-c2ccc(OS(=O)(=O)CC(C)C)cc2OC)ccc2c1N(C)C(=O)C(C)(C)N2 [Compound 2-5, 7-(4-Isobutylsulfonyloxy-2-methoxyphenyl)-8-(2-methoxyphenylaminomethyl)-1,3,3-trimethyl-3,4-dihydro-1H-quinoxalin-2-one] | 97 |
| COc1ccccc1NCc1c(-c2ccc(OS(=O)(=O)C(C)C)cc2OC)ccc2c1N(C)C(=O)C(C)(C)N2 [Compound 2-6, 7-(4-Isopropylsulfonyloxy-2-methoxyphenyl)-8-(2-methoxyphenylaminomethyl)-1,3,3-trimethyl-3,4-dihydro-1H-quinoxalin-2-one] | 100 |
| COc1ccccc1NCc1c(-c2ccc(OS(=O)(=O)C3CCCC3)cc2OC)ccc2c1N(C)C(=O)C(C)(C)N2 [Compound 2-7, 7-(4-Cyclopentylsulfonyloxy-2-methoxyphenyl)-8-(2-methoxyphenylaminomethyl)-1,3,3-trimethyl-3,4-dihydro-1H-quinoxalin-2-one] | 99 |
| CCCS(=O)(=O)Oc1ccc(-c2ccc3c(c2CNc2ccccc2OC)N(C)C(=O)C(C)(C)N3)c(OC)c1 [Compound 2-8, 8-(2-Methoxyphenylaminomethyl)-7-(2-methoxy-4-propylsulfonyloxyphenyl)-1,3,3-trimethyl-3,4-dihydro-1H-quinoxalin-2-one] | 98 |
| COc1cc(OS(=O)(=O)CCCNCc2ccccc2)ccc1-c1ccc2c(c1COc1cc(F)ccc1C)N(C)C(=O)C(C)(C)N2 [Compound 3-1, 7-[4-(3-Benzylaminopropylsulfonyloxy)-2-methoxyphenyl]-8-(5-fluoro-2-methylphenoxymethyl)-1,3,3-trimethyl-3,4-dihydro-1H-quinoxalin-2-one] | 94 |
| CCCNCCCS(=O)(=O)Oc1ccc(-c2ccc3c(c2COc2cc(F)ccc2C)N(C)C(=O)C(C)(C)N3)c(OC)c1 [Compound 3-2, 8-(5-Fluoro-2-methylphenoxymethyl)-7-[2-methoxy-4-(3-propylaminopropylsulfonyloxy)phenyl]-1,3,3-trimethyl-3,4-dihydro-1H-quinoxalin-2-one] | 100 |
| COc1cc(OS(=O)(=O)CCCN2CCOCC2)ccc1-c1ccc2c(c1COc1cc(F)ccc1C)N(C)C(=O)C(C)(C)N2 [Compound 3-3, 8-(5-Fluoro-2-methylphenoxymethyl)-7-[2-methoxy-4-[3-(morpholin-4-yl)propylsulfonyloxy]phenyl]-1,3,3-trimethyl-3,4-dihydro-1H-quinoxalin-2-one] | 100 |
| COc1cc(OS(=O)(=O)CCCN2CCCCC2)ccc1-c1ccc2c(c1COc1cc(F)ccc1C)N(C)C(=O)C(C)(C)N2 [Compound 3-4] | 71 |
| COc1cc(OS(=O)(=O)CCCN(C)CCN(C)C)ccc1-c1ccc2c(c1COc1cc(F)ccc1C)N(C)C(=O)C(C)(C)N2 [Compound 3-5, 7-[4-[3-[N-(2-Dimethylaminoethyl)-N-methylamino]propylsulfonyloxy]-2-methoxyphenyl]-8-(5-fluoro-2-methylphenoxymethyl)-1,3,3-trimethyl-3,4-dihydro-1H-quinoxalin-2-one] | 100 |
| CNCCN(C)CCCS(=O)(=O)Oc1ccc(-c2ccc3c(c2COc2cc(F)ccc2C)N(C)C(=O)C(C)(C)N3)c(OC)c1 [Compound 3-6, 8-(5-Fluoro-2-methylphenoxymethyl)-7-[2-methoxy-4-[3-[N-(2-methylaminoethyl)-N-methylamino]propylsulfonyloxy]phenyl]-1,3,3-trimethyl-3,4-dihydro-1H-quinoxalin-2-one] | 99 |
